Like-named read-outs stand apart in the source and are kept apart here. Values belong to the molecule of their own block, whether it stands above or below them.
Legend:
[1] = target: T1, Salicylate hydroxylase (NahG) (Pseudomonas putida, UniProt P23262); experiment: fluorometric titration; format: binding
T1 sequence (P23262 1-434): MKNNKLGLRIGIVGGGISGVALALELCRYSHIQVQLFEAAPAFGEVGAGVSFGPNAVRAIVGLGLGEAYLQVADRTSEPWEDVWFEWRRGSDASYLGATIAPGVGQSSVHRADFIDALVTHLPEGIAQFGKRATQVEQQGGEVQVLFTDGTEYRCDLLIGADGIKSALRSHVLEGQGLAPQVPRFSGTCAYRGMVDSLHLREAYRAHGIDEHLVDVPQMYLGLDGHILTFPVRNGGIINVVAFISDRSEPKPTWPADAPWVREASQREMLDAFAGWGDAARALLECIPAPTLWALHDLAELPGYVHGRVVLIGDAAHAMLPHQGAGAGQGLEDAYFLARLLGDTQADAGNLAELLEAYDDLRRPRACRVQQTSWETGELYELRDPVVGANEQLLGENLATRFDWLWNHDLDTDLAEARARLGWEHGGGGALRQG

[2] = target: T1, Salicylate hydroxylase (NahG); experiment: fluorometric titration
[3] = substrate: NC(=O)C1=CN([C@@H]2O[C@H](COP(=O)(O)OP(=O)(O)OC[C@H]3O[C@@H](n4cnc5c(N)ncnc54)[C@H](O)[C@@H]3O)[C@@H](O)[C@H]2O)C=CC1; experiment: initial rate of NADH consumption, spectrophotometric; format: biochemical, Pseudomonas putida; conditions: pH 8.5, I = 0.21 M (NaCl), 25 °C, salicylate, FAD as cofactor

- Kd [1]: 280 ± 30 nM
Molecule: O=C(O)c1ccccc1O [salicylate]

- Kd [2]: 36 ± 8 nM
Molecule: Cc1cc2nc3c(=O)[nH]c(=O)nc-3n(C[C@H](O)[C@H](O)[C@H](O)COP(=O)(O)OP(=O)(O)OC[C@H]3O[C@@H](n4cnc5c(N)ncnc54)[C@H](O)[C@@H]3O)c2cc1C [Flavin adenine dinucleotide]

- Kd [2]: 2200 ± 200 nM
Molecule: Cc1cc2nc3c(=O)[nH]c(=O)nc-3n(C[C@H](O)[C@H](O)[C@H](O)COP(=O)(O)O)c2cc1C [riboflavin 5′-monophosphate]

B1: Salicylate hydroxylase (NahG) (Pseudomonas putida) (protein)
chain: T1 sequence (P23262 1-434)
- Km [3]: 27 µM

— PMC8824312 (Bioorganic chemistry, 2021)
